Test results reported in patent publication US12144869B2, “Anti-ROR1 antibody conjugates, compositions comprising anti ROR1 antibody conjugates, and methods of making and using anti-ROR1 antibody conjugates” (Sutro Biopharma, Inc., priority 2022, dated 2024).
Changes are numbered by the printed parent chain.

Columns and labels:
[1] = tested on: ROR1-positive Ntera-2 cells; experiment: Induction of immunogenic cell death markers (calreticulin FACS, HMGB1 ELISA); type: cell-based; details: 3 days treatment
Experimental: ROR1-positive Ntera-2 cells were treated with Conjugate 46 or exatecan for 3 days. Calreticulin on the cell surface was measured by FACS and HMGB1 in the cell culture medium were measured by ELISA. […] FIG. 20A and FIG. 20B illustrate calreticulin expression and HMGB1 release of Ntera-2 cells in the presence of Conjugate 46 or exatecan compared to the un-conjugated antibody and an isotype control of Conjugate 46.

[2] = tested on: ROR1-positive Ntera-2 cells co-cultured with PMBCS; experiment: Ntera-2/PBMC co-culture: target cell killing and monocyte activation; type: cell-based
Experimental: ROR1-positive Ntera-2 cells were co-cultured with PMBCS at E:T=[…] and treated with Conjugate 46 or exatecan for 3 days. Live target cell count and monocyte activation were measured by FACS. […] FIG. 21A and FIG. 21B are graphs showing the percent of live target cells and monocyte activation in Ntera-2 cells following treatment with Conjugate 46 or exatecan compared to the un-conjugated antibody and an isotype control of Conjugate 46. […] Unconjugated anti-ROR1 antibody or a non-targeted ADC had no activity. […] Viability and calreticulin surface expression were measured and presented as a percentage compared to untreated cells.

ROR1 negative MCF7 cells = experiment: In vitro cell killing of ROR1 ADCs on MCF7; type: cell-based
Experimental: (§1) Anti-ROR1 antibody was conjugated to different linker-warheads described herein at different DARs and the cell killing activity of the ADCs were evaluated on ROR1 positive Ntera-2 cell and ROR1 negative MCF7 cells.
(§2) Ntera-2 or MCF7 cell at 625 cells/25 μL were seeded in a 384-well flat bottom white polystyrene plate one day before the assay start. ADCs were formulated at 2× starting concentration. Filter sterilized samples were serial diluted (1:3) under sterile conditions and added onto cells in triplicates. Plates were cultured at 37° C. in a CO2 incubator for 120 hours. For cell viability measurement, 30 microliter of Cell Titer-Glo® reagent (Promega Corp, Madison, WI) was added into each well, and plates processed as per product instructions. Relative luminescence was measured on an ENVISION® plate reader (Perkin-Elmer; Waltham, MA). Relative luminescence readings were converted to % viability using untreated cells as controls. Data was fitted with non-linear regression analysis, using log (inhibitor) vs. response, variable slope, 4-parameter fit equation using GraphPad Prism.
To evaluate if the cell killing activity of anti-ROR1 ADCs is dependent on antibody binding to ROR1 expressed on cell surface, the same linker-warheads (LP3, LP4) were conjugated to an anti-GFP antibody and the cell killing of the anti-ROR1 and anti-GFP ADCs were evaluated in cell killing assays on ROR1 positive Ntera-2 cell and ROR1 negative MCF7 cells.

[3] = tested on: ROR1 positive Ntera-2 cell; experiment: In vitro cell killing of ROR1 ADCs on Ntera-2; type: cell-based
Experimental: as §1, §2
To evaluate if the cell killing activity of anti-ROR1 ADCs is dependent on antibody binding to ROR1 expressed on cell surface, the same linker-warheads (LP3, LP4) were conjugated to an anti-GFP antibody and the cell killing of the anti-ROR1 and anti-GFP ADCs were evaluated in cell killing assays on ROR1 positive Ntera-2 cell and ROR1 negative MCF7 cells. […]

TNBC PDX tumors = experiment: TNBC PDX models, single agent or combination with olaparib; type: in vivo, athymic nude mice; details: CTG-0437, CTG-1017, and CTG-2055; single agent olaparib 50 mg/kg p.o. qd×28
Description: The activity of Conjugate 46 as a single agent or in combination with the PARP inhibitor olaparib was additionally assessed in TNBC PDX models. Briefly, PDX tumors, spanning varying levels of ROR1 expression and sensitivity to olaparib, were passaged in athymic nude Fox1^nu mice before being processed into tumor fragments for subcutaneous implantation into the hind flank of mice for study initiation. When tumors reached a volume of around 150-300 mm^3, the mice were randomized and enrolled into the study. Tumor-bearing mice were administered up to three weekly doses (qw×3) of Conjugate 46 i.v. at 5 mg/kg and up to twenty-eight daily doses (qd×28) of olaparib p.o. at 50 mg/kg.
Combination treatment with Conjugate 46 and olaparib (50 mg/kg, qd×28) is conducted using a 2 mg/kg, qw×3 dosing regimen for Conjugate 46. The combination therapy is assessed in six TNBC PDX models as described in Example 26.

[4] = tested on: Immunoglobulin (Ig), Frizzled (Fz), and Kringle (Kr) domains of ROR1; experiment: Epitope binning ELISA on ROR1 domains; type: binding; details: Table 6
Description: Antibody binding was detected via HRP-conjugated anti-human Fc antibodies (Jackson Immunoresearch) and detection with SuperSignal ELISA Pico Chemiluminescent Substrate (Pierce).

[5] = Differential scanning fluorimetry (protein thermal shift; TM1/TM2); type: physicochemical; details: Table 11; melting temperature of the Fab domain
Outline: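 Protein at 0.2-2 mg/mL was mixed 1:1 with SYPRO Orange in PBS and heated to 95° C. at ~1.5° C. per minute while fluorescence was monitored, in quadruplicate. TM1 is Fc (CH2) unfolding and TM2 is Fab unfolding.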

[6] = biological target: T1, HCT116 cells overexpressing human ROR1 (HCT116-hRor1) (Homo sapiens, UniProt Q01973); experiment: FACS cell binding on HCT116-hROR1; details: Table 11, SP34 light chain
T1 construct: expressed in transfected cells; host or cells: HCT116 (clone HCT116-hRor1-D02)
Description: Ntera-2, MDA-MB-231, MCF7, HCT116 and Mino cells were obtained from ATCC. HCT116-hRor1-D02 clone was generated by transfecting HCT116 cells with a plasmid containing human Ror1 cDNA sequence and selected for highest stable expression of hRor1 on the cell surface. MDA-MB-231, MCF7, HCT116 and HCT116-Ror1 cell were maintained in Ham's F-12 high glucose DMEM (50-50) (Cellgro-Mediatech; Manassas, VA) supplemented with 10% heat-inactivated fetal bovine serum (Hyclone; Thermo Scientific; Waltham, MA), 1% Penicillin/Streptomycin (Cellgro-Mediatech; Manassas, VA) and 2 mmol/L-glutamax (Life Technology; Carlsbad, CA). Mino cells were maintained in RPMI-1640 medium (Cellgro-Mediatech; Manassas, VA) supplemented with 20% heat-inactivated fetal bovine serum (Hyclone; Thermo Scientific; Waltham, MA), 1% Penicillin/Streptomycin (Cellgro-Mediatech; Manassas, VA) and 2 mmol/L-glutamax (Life Technology; Carlsbad, CA).
Variants with expression levels>250 nM were tested in a fluorescence-activated cell sorting (FACS) cell-binding assay. […]
A mix of ROR1 positive and negative cells was prepared as follows. […] Cells were then washed 2× with FACS buffer and fixed for 10 minutes in 200 μl PBS with 2% PFA prior to fluorescence detection. […] Mean Fluorescence Intensity of ROR1 antibody binding was analyzed using FlowJo® software (Tree Star, Inc.).

human ROR1-Fz = biological target: T2, human ROR1-Fz (Homo sapiens, UniProt Q01973); experiment: Biacore off-rate and kinetic analysis, ROR1-Fz; type: binding; details: Table 11; SP34 light chain
T2 construct: Frizzled (Fz, residues 165-305); His6 (C); purchased Acro Biosystems; host or cells: HEK293
Outline: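 Anti-ROR1 antibodies captured on anti-human Fc surface; recombinant hROR1 ECD or ROR1-Fz analyte flowed at 100, 50, 25, 6.25, 1.5625 nM plus 0 nM, 180 s association, 600 s dissociation, 25° C., HBS-EP+ buffer. KD from ratio of rate constants, 1:1 Langmuir fit.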

CC[C@@]1(O)C(=O)OCc2c1cc1n(c2=O)Cc2c-1nc1cc(F)c(C)c3c1c2[C@@H](N)CC3 [exatecan]
HMGB1 release into the cell culture medium (ELISA) [1]: induced | calreticulin translocation to the cell surface (FACS) [1]: induced | cell killing of target cells (live target cell count, FACS) ([2]; E:T=10.1, 3 days): induced potent cell killing of target cells | monocyte activation (CD86 expression) ([2]; E:T=10.1, 3 days): potently induced monocyte activation | calreticulin on the cell surface ([2]; concomitant with reduced viability): could be detected on the cell surface | EC50 (ROR1 negative MCF7 cells; Homo sapiens, MCF7, 120 h, read-out: MCF-7 EC50): 0.466 nM | MCF-7 Span (ROR1 negative MCF7 cells; Table 13, ROR1 negative MCF7, 120 hours): 91% | EC50 ([3]; NTERA2, 120 h, read-out: NTERA-2 EC50): 0.074 nM | NTERA-2 Span ([3]; Table 13, ROR1 positive Ntera-2, 120 hours): 98%

O=C(c1cc(Cc2n[nH]c(=O)c3ccccc23)ccc1F)N1CCN(C(=O)C2CC2)CC1 [olaparib]
tumor growth suppression (TNBC PDX tumors): moderate tumor growth suppression

B1: SRP2196 (antibody, V domains shown)
VH: EVQLVESGGGLVQPGGSLRLSCAASGFNITGYYIHWVRQAPGKGLEWVGYISPNSGSTYYADSVKGRFTISADTSKNTAYLQMNSLRAEDTAVYYCARDSRRYVRPFDYWGQGTLVTVSS
VL: QAVVTQESALTTSPGETVTLTCRSSTGAVTTSNYANWVQEKPDHLFTGLIGGTNKRAPGVPARFSGSLIGDKAALTITGAQTEDEAIYFCALWYSNLWVFGGGTKLTVL
modifications: Synthetic: 1944-A07; VH; Synthetic: SP34 ; VL
Domain binding by ELISA [4]: Fz

B2: SRP2196-B07 (antibody, V domains shown)
VH: B1 VH with Y33H, K43E, S57A, K65E, N84H, A97T, P106G, F107W
VL: B1 VL
TM2 (° C.) [5]: 69 °C | HCT 116-hROR1 Binding Bmax (MFI) [6]: 15139 MFI | Kd ([6]; read-out: HCT 116-hROR1 Binding Kd): 0.3 nM | Biacore human ROR1-Fz ka (human ROR1-Fz): 185000 M⁻¹ s⁻¹ | Biacore human ROR1-Fz kd (human ROR1-Fz): 0.000269 s⁻¹ | Kd (human ROR1-Fz): 1.45 nM
